Experimental data as given in US4452813A, “Sulfonate derivatives, process for preparing same and antilipemic compositions containing the derivative” (Taiho Pharmaceutical Company Limited, priority 1981, dated 1984).

Columns and labels:
[1] = molecular target: Chymotripsin (Bos taurus, UniProt P00766); assay: Chymotripsin inhibiting activity (hydrolysis of ATEE); assay type: biochemical; conditions: 0.5 h; 1 × 10^-4 mol; 20 min preincubation, ATEE 30 min, 37° C., pH 8.0
Experimental: 2. Chymotripsin Inhibiting Activity
Chymotripsin (0.1 unit) serving as an enzyme solution is added to a specified quantity of buffer solution (pH 8.0) containing 0.1 mole of trishydrochloric acid. To the mixture is further added a 50% ethanol solution of the compound of the invention. The mixture is reacted at 37° C. for 20 minutes.
On completion of the reaction, 10 micromoles of […] (ATEE) serving as a substrate is added to the mixture, and the resulting mixture is reacted at 37° C. for 30 minutes.
After the completion of the reaction, the amount of remaining ATEE is determined by the same hydroxamic acid method as above. The percent chymotripsin inhibition is given by [formula] wherein A is the amount of hydrolzed esters in the reaction system not containing the compound of the invention, and B is the amount of hydrolyzed esters in the reaction system containing the present compound.

[2] = Acute toxicity, oral, one week; conditions: rat, in vivo, 5% gum arabic suspension
Text: Six-week-old male Wister rats weighing 180 to 200 g are used, 5 rats in each group. The present compound is suspended in a 5% aqueous solution of gum arabic, and the suspension is orally given to the rats. For one week after the start of the test, the rats are checked evey day for general toxicity symptoms, body weight and death to determine the LD50 value.

[3] = molecular target: esterase (purified microsome fraction of the liver of a rat); assay: Esterase inhibiting activity (hydrolysis of methyl butyrate); assay type: biochemical; conditions: methyl butyrate substrate, pH 8.0, 37° C., 60 minutes
Experimental: 1. Esterase Inhibiting Activity
A 10 micromole quantity of methyl butyrate in a 50% ethanol solution is added as a substrate to a specified amount of buffer solution (pH 8.0) containing 0.1 mole of trishydrochloric acid. To the mixture is further added a 50% ethanol solution of the compound of the invention, immediately followed by addition of an esterase solution prepared from a purified microsome fraction of the liver of a rat (adjusted to hydrolyze 9 micromoles of methyl butyrate at 37° C. in one hour). The mixture is reacted at 37° C. for 60 minutes.
After the reaction, alkaline hydroxylamine is added to the mixture to form a hydroxamic acid derivative of methyl butyrate, and a ferric salt is added to the derivative. The resulting red color is colorimetrically determined (at a wavelength of 540 nm) to determine the amount of remaining methyl butyrate. The esterase inhibiting ratios of the present compound at least at three concentrations are plotted as ordinate, and the logarithms of the concentrations as abscissa to obtain a line, which gives the 50% inhibition concentration (IC50).

[4] = test system: triglycerides content in the plasma; assay: Antilipemic effect: inhibition of olive oil-induced hyperlipidemia, plasma triglycerides; assay type: in vivo, male Wister rats; conditions: Rattus norvegicus, 100 mg compound in 5 ml olive oil, 5 ml/kg oral, 2 hours, read-out: Antilipemic effect IGI (%) (percent hyperlipidemia inhibition, triglycerides)
Experimental: Seven-week-old male Wister rats weighing 200 to 220 g are used, 5 rats in each group.
The compound of the invention (100 mg) is dissolved in 5 ml of olive oil. The olive oil containing the compound is orally given to the rat with a probe at a dose of 5 ml/kg. Two hours thereafter, 6 ml of whole blood is withdrawn from the descending aorta of the rat under ether anesthesia with a syringe containing heparin. The blood is centrifuged at 5° C. and 3000 r.p.m. to obtain the plasma. The plasma collected is used for determining the triglycerides content, using a triglycerides measuring kit (trade mark "Triglycerides-B Test Wako," product of Wako Junyaku Co., Ltd., Japan). Olive oil containing no compound is similarly given to a control group, while no treatment is conducted for a normal group. The triglycerides content in the plasma is also determined for these groups in the same manner as is the case with the test groups.
The percent hyperlipidemia inhibition achieved by the present compound is given by [formula] in which A is the triglycerides content of the control group, B is the triglycerides content of the normal group, and C is the triglycerides content of the group to which the present compound is given.

SMILES | inhibition at 100 µM [1] | LD50 at 168 h [2] | IC50 [3] | inhibition in vivo at 100 mg/kg [4]
CCOc1ccc(S(=O)(=O)OCC(=O)C(CC)CC2CCCCC2)cc1 (stereo not shown) [Compound 7] | 13% | > 3000 mg/kg | 200 µM | 71%
CCOc1ccc(S(=O)(=O)OCC(=O)CC2CCC(C)CC2)cc1 (stereo not shown) [Compound 16] | 81% | > 3000 mg/kg | 5 µM | 11%
COc1ccc(S(=O)(=O)OCC(=O)CC(C)C2CCCCC2)cc1 (stereo not shown) [Compound 10, 4-cyclohexyl-1-(4-methoxybenzenesulfonyloxy)2-pentanone] | 22% | > 3000 mg/kg | 3.5 µM | 46%
CC1CCCCC1CC(=O)COS(=O)(=O)c1ccccc1 (stereo not shown) [Compound 17, 1-benzenesulfonyloxy-3-(2-methylcyclohexyl)-2-propanone] | 97% | > 2000 mg/kg | 0.032 µM | 72%
CC(C)(C)[C@H]1CC[C@H](C(=O)COS(=O)(=O)c2ccccc2)CC1 [Compound 35] | – | > 3000 mg/kg | 4.6 µM | 72%
Cc1ccc(S(=O)(=O)OCC(=O)[C@H]2CC[C@@H](C(C)(C)C)CC2)cc1 [Compound 36] | 44% | > 3000 mg/kg | 86 µM | 52%
Cc1cc(C)c(S(=O)(=O)OCC(=O)[C@H]2CC[C@H](C(C)C)CC2)c(C)c1 [Compound 29] | – | > 3000 mg/kg | 0.13 µM | –
CCC(C)[C@H]1CC[C@H](C(=O)COS(=O)(=O)c2ccccc2)CC1 (stereo partly shown) [Compound 33] | 19% | > 3000 mg/kg | 0.17 µM | 76%
CC(C)C[C@H]1CC[C@H](C(=O)COS(=O)(=O)c2ccccc2)CC1 [Compound 31] | 43% | > 3000 mg/kg | 1.6 µM | 79%
Cc1ccc(S(=O)(=O)OCC(=O)C(C)CC2CCCCC2)cc1 (stereo not shown) [Compound 2] | 90% | > 2000 mg/kg | 7.8 µM | 50%
CCC(C)[C@H]1CC[C@@H](C(=O)COS(=O)(=O)c2ccccc2)CC1 (stereo partly shown) [Compound 32] | 13% | > 3000 mg/kg | 0.56 µM | 61%
CC(C)[C@H]1CC[C@H](C(=O)COS(=O)(=O)c2ccccc2)CC1 [Compound 25, trans-2-(benzene-sulfonyloxy)-1-(4-isopropylcyclohexyl)-1-ethanone] | 62% | > 3000 mg/kg | 0.065 µM | 90%
CCOc1ccc(S(=O)(=O)OCC(=O)C(CC)C2CCC(C)CC2)cc1 (stereo not shown) [Compound 14] | 40% | > 3000 mg/kg | 40 µM | 81%
CC(C)(C)[C@H]1CC[C@@H](C(=O)COS(=O)(=O)c2ccccc2)CC1 [Compound 34] | – | > 3000 mg/kg | 4.6 µM | 52%
Cc1ccc(S(=O)(=O)OCC(=O)CC(C)C2CCCCC2)cc1 (stereo not shown) [Compound 9] | 31% | > 2000 mg/kg | 4.2 µM | 70%
CC(CC(=O)COS(=O)(=O)c1ccccc1)C1CCCCC1 (stereo not shown) [Compound 8] | 31% | > 3000 mg/kg | 0.8 µM | 73%
Cc1ccc(S(=O)(=O)OCC(=O)[C@H]2CC[C@H](C(C)(C)C)CC2)cc1 [Compound 37] | 22% | > 3000 mg/kg | 5.4 µM | 66%
CCOc1ccc(S(=O)(=O)OCC(=O)[C@H]2CC[C@@H](C(C)C)CC2)cc1 [Compound 26] | 14% | > 3000 mg/kg | 11 µM | 50%

SMILES | inhibition at 100 µM [1] | LD50 at 168 h [2] | IC50 [3] | inhibition in vivo at 100 mg/kg [4]
CCC(CC1CCCCC1)C(=O)COS(=O)(=O)c1ccccc1 (stereo not shown) [Compound 5, 1-benzenesulfonyloxy-4-cyclohexyl-3-ethyl-2-butanone] | 12% | > 2000 mg/kg | 4.7 µM | 80%
CC(C)C1CCC(CC(=O)COS(=O)(=O)c2ccccc2)CC1 (stereo not shown) [Compound 21] | 94% | > 3000 mg/kg | 6 µM | 70%
Cc1cc(C)c(S(=O)(=O)OCC(=O)[C@H]2CC[C@@H](C(C)C)CC2)c(C)c1 [Compound 28] | – | > 3000 mg/kg | 1.2 µM | –
CCC(CC1CCCCC1)C(=O)COS(=O)(=O)c1ccc(OC)cc1 (stereo not shown) [Compound 6] | – | > 3000 mg/kg | – | 52%
CCC(C(=O)COS(=O)(=O)c1ccc(C)cc1)C1CCC(C)CC1 (stereo not shown) [Compound 13] | 50% | > 2000 mg/kg | 20 µM | –
CC(CC1CCCCC1)C(=O)COS(=O)(=O)c1ccccc1 (stereo not shown) [Compound 1, 1-benzenesulfonyloxy-4-cyclohexyl-3-methyl-2-butanone] | 100% | > 2000 mg/kg | 0.35 µM | 60%
Cc1ccc(S(=O)(=O)OCC(=O)CC2CCCCC2C)cc1 (stereo not shown) [Compound 18] | 72% | > 2000 mg/kg | 8.4 µM | –
Cc1ccc(S(=O)(=O)OCC(=O)CC2CCC(C)CC2)cc1 (stereo not shown) [Compound 15, 1-(4-methylcyclohexyl)-3-(p-toluenesulfonyloxy)-2-propanone] | 94% | > 2000 mg/kg | 1.4 µM | 85%
CCOc1ccc(S(=O)(=O)OCC(=O)C(C)CC2CCCCC2)cc1 (stereo not shown) [Compound 4] | 78% | > 3000 mg/kg | 23 µM | 52%
CCOc1ccc(S(=O)(=O)OCC(=O)[C@H]2CC[C@H](C(C)C)CC2)cc1 [Compound 27] | 35% | > 3000 mg/kg | 2 µM | 76%
CC(C)[C@H]1CC[C@@H](C(=O)COS(=O)(=O)c2ccccc2)CC1 [Compound 24] | 16% | > 3000 mg/kg | 0.7 µM | 60%
COc1ccc(S(=O)(=O)OCC(=O)C(C)CC2CCCCC2)cc1 (stereo not shown) [Compound 3] | 93% | > 3000 mg/kg | 4 µM | 63%
CCC1CCC(C(=O)COS(=O)(=O)c2ccccc2)CC1 (stereo not shown) [Compound 22] | 58% | > 2000 mg/kg | 0.2 µM | 59%
CCOc1ccc(S(=O)(=O)OCC(=O)CC2CCCCC2C)cc1 (stereo not shown) [Compound 19] | 57% | > 3000 mg/kg | 5.4 µM | 74%
CCOc1ccc(S(=O)(=O)OCC(=O)C2CCC(CC)CC2)cc1 (stereo not shown) [Compound 23] | 24% | > 3000 mg/kg | 1.4 µM | 67%
CC(C)C[C@H]1CC[C@@H](C(=O)COS(=O)(=O)c2ccccc2)CC1 [Compound 30] | 30% | > 3000 mg/kg | 4 µM | 57%
Cc1cc(C)c(S(=O)(=O)OCC(=O)CC(C)C2CCCCC2)c(C)c1 (stereo not shown) [Compound 12] | 24% | > 3000 mg/kg | 1 µM | 39%
